The source of these data is patent US20020156112A1, “Endostatin-like angiogenesis inhibition” (priority 2000, published 2002).

What all share (format): binding
Assay [1] deals with RGD-endostatin interaction. Nature of the assay: Colloid colour-change drug screen for endostatin mimics via RGD/endostatin interaction (Example 8). The note with it: 5 μL candidate drug at 2.9 mg/ml in DMSO; 4.75 ul of 0.1 mg/mL endostatin; room temperature, about 20 minutes. The protocol: In yet another aspect of the invention, a high throughput drug screening assay is described that identifies endostatin mimics is described. Histidine-tagged peptides containing two tandem GRGDS motifs are immobilized, from a phosphate buffered saline solution, onto gold nanoparticles (called colloids) that have been derivatized with NTA-Ni-SAMs that capture histidine-tagged species. Endostatin, which is a dimer in its functional form, is added to the colloidal solution. Dimeric endostatin presents two binding sites that recognize GRGDS motif peptides. The binding of dimeric endostatin to two peptides attached to two different colloids, draws the colloids close together and causes the color of the gold colloid solution to change from pink to blue. Recall that colloidal gold appears pink when the particles are dispersed in a homogeneous solution, but the solution turns blue when the particles are aggregated, see FIG. 5. Drug candidates are added to the colloid-immobilized GRGDS motif peptides and endostatin solution. When a drug candidate effectively interrupts the endostatin—GRGDS motif peptide interaction, the solution remains pink. Recall that the drug candidates are monomeric and therefore, even if they bind to the GRGDS peptides, they cannot bring two colloids together, which would cause the solution color to change from the inherent pink, to blue, see FIG. 7.
60 uM NTA colloids presenting a His-tagged peptide containing […] RGD motifs (GRGDSGRGDS) were prepared by incubating 1 mL of colloids with 200 ul 100 uM His-RGD for ten minutes, pelleting the colloids to remove excess unbound peptide, and resuspending the colloids in PBS. Negative control colloids were prepared by substituting a random His-tagged peptide in place of the RGD peptide. 30 μL RGD-colloids (or random peptide-colloids for negative controls) were added to each well of a 96-well plate along with 60 ul PBS per well. 5 μL of a candidate drug at 2.9 mg/ml in DMSO was added to each well of the plate. Candidate drugs including L-histidine, D-cycloserine, quisqualic acid and suramin were assessed. (See FIGS. 1-4). DMSO was added in place of a drug to each of the positive and negative controls. 4.75 ul of 0.1 mg/mL endostatin was added to each well. The plate was incubated at room temperature and observed for color change. After about 20 minutes, the positive controls changed color from pink to blue as the endostatin bound to the RGD peptide. […] Drugs identified in this manner that bound to the RGD motif and inhibited binding of endostatin may be endostatin mimics and could be used as synthetic replacements of endostatin.

Assay [2] is described as follows: Biotin-streptavidin interaction with gold colloids (Example 1). How it is done:
(§1) Gold colloids were prepared using a mixture of 10 μM biotin thiol, 10 μM NTA thiol, and 580 μM C11 thiol. Control colloids were prepared using 20 μM NTA thiol and 580 μM C11 thiol for a total thiol concentration of 600 μM. After deposition, the colloids were heat cycled in 400 μM EG3 thiol, and charged with nickel sulfate. A streptavidin stock solution (1 mg/mL) was prepared in 10 mM sodium phosphate buffer, 100 mM sodium chloride, pH 7.4 (buffer) To detect the biotin-streptavidin interaction, 60 μL buffer, 10 μL streptavidin, and 30 μL colloids, were mixed in a well of a 96-well plate. The plate was incubated at room temperature and observed for color change. At the three highest concentrations of streptavidin (0.1 mg/mL, 0.01 mg/mL, 0.001 mg/mL) the colloids presenting biotin turned blue (wells A1, A2, A3, FIG. 5). At lower concentrations of streptavidin, the wells containing biotin colloids remained pink (wells A4, A5, A6, A7). A similar experiment was performed using colloids presenting only the NTA group (wells B1-B7).
(§2) FIG. 5 is a digital photo of a colorimetric nanoparticle experiment in which gold colloids were derivatized with either biotin-SAMs (top row) or NTA-Ni-SAMs (bottom row). Streptavidin which has four binding sites for biotin, and thus will cross-link biotin-presenting colloids, was added free in solution. […]

Assay [3] is described as follows: Biotin-streptavidin interaction, control colloids (Example 1). The note with it: same streptavidin concentrations; wells B1-B7. How it is done:
as §1, §2

The target of assay [4] is T1, endostatin—GRGDS interaction (Homo sapiens, UniProt P39060).
T1 construct: purchased Calbiochem 324746
T1 sequence (P39060 1572-1754 limits assumed): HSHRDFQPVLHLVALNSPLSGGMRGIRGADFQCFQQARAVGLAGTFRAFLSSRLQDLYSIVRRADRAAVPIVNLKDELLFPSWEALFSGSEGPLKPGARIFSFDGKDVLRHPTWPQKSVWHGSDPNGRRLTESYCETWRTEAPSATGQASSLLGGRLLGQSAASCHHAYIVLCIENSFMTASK
Put plainly: Vitronectin competition in gold colloid colour-change assay (Example 6). The protocol:
40 μM NTA gold colloids were prepared which presented the His-tagged RGD peptide (Sequence ID No.1, see Table 1). These colloids were mixed with endostatin (0.1 mg /mL) and turned blue, indicating binding of endostatin to the GRGDS peptide (A1, A2, FIG. 6). Control colloids presenting an irrelevant FLR-peptide (Sequence ID #2, see table 1) remained pink (wells A3, A4). At the highest concentration of vitronectin (0.1 mg /ml), the endostatin—GRGDS interaction is disrupted, and the well remains pink (B1). At lower concentrations of vitronectin, the endostatin—GRDS interaction is not affected and the wells turn blue (B2-B5).

For the compound `N[C@@H]1CONC1=O` [D-cycloserine], the “disruption of RGD-endostatin interaction (well remains pink)” value (shortened to “disruption … (well remains pink)”) in assay [1] was “disrupted the RGD-endostatin interaction”.

Take `N[C@@H](Cc1c[nH]cn1)C(=O)O` [L-histidine]: the “disruption … (well remains pink)” value in assay [1] is recorded as “disrupted the RGD-endostatin interaction”. Take `N[C@@H](Cn1oc(=O)[nH]c1=O)C(=O)O` [quisqualic acid]: the “disruption … (well remains pink)” value in assay [1] is “disrupted the RGD-endostatin interaction”. With `Cc1ccc(C(=O)Nc2ccc(S(=O)(=O)O)c3cc(S(=O)(=O)O)cc(S(=O)(=O)O)c23)cc1NC(=O)c1cccc(NC(=O)Nc2cccc(C(=O)Nc3cc(C(=O)Nc4ccc(S(=O)(=O)O)c5cc(S(=O)(=O)O)cc(S(=O)(=O)O)c45)ccc3C)c2)c1` [suramin], the “disruption … (well remains pink)” value in assay [1] is reported as “disrupted the RGD-endostatin interaction”.

Turning to “streptavidin: Streptavidin which has four binding sites for biotin, added free in solution”, the “colour of biotin colloids” value is listed as “remained pink” in assay [2] (lower concentrations of streptavidin, wells A4-A7) and “turned blue” in assay [2] (three highest concentrations of streptavidin (0.1 mg/mL, 0.01 mg/mL, 0.001 mg/mL), wells A1-A3). For the same compound, the “colour of NTA-only control colloids” value in assay [3] is listed as “remained pink”. For “vitronectin: full-length vitronectin, a cell adhesion molecule containing the GRGDS motif”, the “effect on endostatin—GRGDS interaction” value in assay [4] (highest concentration of vitronectin (0.1 mg/ml), well B1) was “disrupted”; in assay [4] (lower concentrations of vitronectin, wells B2-B5), “not affected”.
